# Test results from PubChem BioAssay AID330 (DTP/NCI, 2004).
# Several values for one entry are separate records, joined by “and”; a condition that tells them apart may be missing. Equal values may be shown once. Inconclusive results and toxic doses are left out.
# Test system: P388 leukemia ip, CD2F1 mice, survival T/C
# Assay: NCI In Vivo Anticancer Drug Screen. Data for tumor model P388 Leukemia (intraperitoneal) in CD2F1 (CDF1) mice
# Conditions: endpoint: median survival time, higher = longer survival
# Outline: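 Mice carrying the transplanted tumor received test compound or vehicle. Survival was recorded in each group, and the value is the treated-group measurement divided by that of the vehicle-treated control group.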
# [1] = dose: 50.0 mg/kg/injection, schedule: Q01DX005 (ip), vehicle: Klucel (hydroxypropylcellulose) (HPC)
# [2] = dose: 100.0 mg/kg/injection, schedule: Q01DX005 (ip), vehicle: Klucel (hydroxypropylcellulose) (HPC)
# [3] = dose: 200.0 mg/kg/injection, schedule: Q01DX005 (ip), vehicle: Klucel (hydroxypropylcellulose) (HPC)
# [4] = dose: 100.0 mg/kg/injection, schedule: Q04DX003 (ip), vehicle: saline with Tween-80
# [5] = dose: 200.0 mg/kg/injection, schedule: Q04DX003 (ip), vehicle: saline with Tween-80
# [6] = dose: 25.0 mg/kg/injection, schedule: Q01DX009 (ip), vehicle: saline
# [7] = dose: 50.0 mg/kg/injection, schedule: Q01DX009 (ip), vehicle: saline with Tween-80
# [8] = dose: 60.0 mg/kg/injection, schedule: Q01DX005 (ip), vehicle: Klucel (hydroxypropylcellulose) (HPC)
# [9] = dose: 120.0 mg/kg/injection, schedule: Q01DX005 (ip), vehicle: Klucel (hydroxypropylcellulose) (HPC)
smiles,measurement,setting,value
Cc1c(C(=O)c2ccc3c(c2)OCO3)ccc2c1OCO2,T/C,[1],105 % of control
same,T/C,[2],105 % of control
same,T/C,[3],98 % of control
OCc1c(CO)c(C(F)(F)F)n2c1CCC2,T/C,"dose: 50.0 mg/kg/injection, schedule: Q01DX009 (ip), vehicle: Klucel (hydroxypropylcellulose) (HPC)",104 % of control
same,T/C,"dose: 100.0 mg/kg/injection, schedule: Q01DX009 (ip), vehicle: Klucel (hydroxypropylcellulose) (HPC)",104 % of control
COC(=O)C1=C(C(=O)OC)P(I)(c2ccccc2)(c2ccccc2)N(C)C1(c1ccccc1)c1ccccc1,T/C,[1],100 % of control
same,T/C,[2],100 % of control
same,T/C,[3],90 % of control
CC(C)C1OC(c2ccc(Cl)cc2)OCC1(C)C (stereo unspecified),T/C,[4],114 % of control
same,T/C,[5],110 % of control
same,T/C,"dose: 400.0 mg/kg/injection, schedule: Q04DX003 (ip), vehicle: saline with Tween-80",97 % of control
CC1CN(C2CCCCC2)CO1 (stereo unspecified),T/C,"dose: 12.5 mg/kg/injection, schedule: Q01DX005 (ip), vehicle: saline",104 % of control and 105 % of control
same,T/C,"dose: 25.0 mg/kg/injection, schedule: Q01DX005 (ip), vehicle: saline",104 % of control and 112 % of control
same,T/C,"dose: 50.0 mg/kg/injection, schedule: Q01DX005 (ip), vehicle: saline",117 % of control and 118 % of control and 124 % of control
same,T/C,"dose: 100.0 mg/kg/injection, schedule: Q01DX005 (ip), vehicle: saline",121 % of control and 124 % of control
same,T/C,"dose: 200.0 mg/kg/injection, schedule: Q01DX005 (ip), vehicle: saline",109 % of control
CCCN(CCC)CCCCO,T/C,"dose: 50.0 mg/kg/injection, schedule: Q04DX003 (ip), vehicle: saline with Tween-80",195 % of control
same,T/C,[4],100 % of control
same,T/C,[5],100 % of control
FC(F)(Cl)c1nc2nc(Cl)c(Cl)nc2[nH]1,T/C,"dose: 50.0 mg/kg/injection, schedule: Q01DX009 (ip), vehicle: other",100 % of control
same,T/C,"dose: 50.0 mg/kg/injection, schedule: Q04DX003 (ip), vehicle: other",95 % of control
same,T/C,"dose: 100.0 mg/kg/injection, schedule: Q01DX009 (ip), vehicle: other",114 % of control
same,T/C,"dose: 100.0 mg/kg/injection, schedule: Q04DX003 (ip), vehicle: other",110 % of control
same,T/C,"dose: 200.0 mg/kg/injection, schedule: Q04DX003 (ip), vehicle: other",105 % of control
COc1ccc(C(CC(=O)NCCCl)CC(=O)NCCCl)cc1,T/C,"dose: 100.0 mg/kg/injection, schedule: Q01DX001 (ip), vehicle: suspension in saline",101 % of control
same,T/C,"dose: 200.0 mg/kg/injection, schedule: Q01DX001 (ip), vehicle: suspension in saline",100 % of control
C=CCCCCCCCCCCCCCC1=NCC[N+]1(CCO)CC(O)COc1cc(Cl)c(Cl)c(Cl)c1 (stereo unspecified),T/C,"dose: 12.5 mg/kg/injection, schedule: Q01DX009 (ip), vehicle: saline",102 % of control
same,T/C,[6],106 % of control
same,T/C,"dose: 50.0 mg/kg/injection, schedule: Q01DX009 (ip), vehicle: saline",105 % of control and 108 % of control
same,T/C,"dose: 100.0 mg/kg/injection, schedule: Q01DX009 (ip), vehicle: saline",90 % of control
CCN(CC)CCOC(=O)CC1CCCCC1,T/C,[7],102 % of control
same,T/C,"dose: 100.0 mg/kg/injection, schedule: Q01DX009 (ip), vehicle: saline with Tween-80",100 % of control
same,T/C,"dose: 200.0 mg/kg/injection, schedule: Q01DX009 (ip), vehicle: saline with Tween-80",99 % of control
C/C(=N\N=C(N)N)c1cccc(/C(C)=N/N=C(N)N)n1,T/C,"dose: 6.25 mg/kg/injection, schedule: Q01DX009 (ip), vehicle: saline with Tween-80",101 % of control
same,T/C,"dose: 25.0 mg/kg/injection, schedule: Q01DX009 (ip), vehicle: saline with Tween-80",110 % of control
same,T/C,[7],90 % of control
CC(=O)CCC1=C(C)C(=O)C(=O)C(C)=C1O,T/C,[8],96 % of control
same,T/C,[9],98 % of control
C=C1C2CCC3C4(C)CCCC(C)(C(=O)O)C4CCC3(C2)C1O (stereo unspecified),T/C,"dose: 15.0 mg/kg/injection, schedule: Q01DX005 (ip), vehicle: Klucel (hydroxypropylcellulose) (HPC)",100 % of control
same,T/C,"dose: 30.0 mg/kg/injection, schedule: Q01DX005 (ip), vehicle: Klucel (hydroxypropylcellulose) (HPC)",100 % of control
same,T/C,[8],99 % of control
same,T/C,[9],100 % of control
N#CN=[N+]([O-])c1ccc(Br)cc1,T/C,"dose: 6.25 mg/kg/injection, schedule: Q04DX003 (ip), vehicle: Klucel (hydroxypropylcellulose) (HPC)",108 % of control
same,T/C,"dose: 12.5 mg/kg/injection, schedule: Q04DX003 (ip), vehicle: Klucel (hydroxypropylcellulose) (HPC)",108 % of control
same,T/C,"dose: 25.0 mg/kg/injection, schedule: Q04DX003 (ip), vehicle: Klucel (hydroxypropylcellulose) (HPC)",90 % of control
CC1([CH2][Hg][I])OCCOC1[CH2][Hg][I] (stereo unspecified),T/C,[6],105 % of control
